These results are taken from ChEMBL document CHEMBL3044865, “Herbicidal Activity and Characteristics of Pyraflufen-ethyl for Controlling Broad-leaved Weeds in Cereals” (J Pestic Sci, 2002).

Each structure is given as a SMILES string. Active and inactive are the calls of the source. The rule behind the calls is not given here.

The test system of one data set is Hordeum vulgare. The experiment in a line: Phytotoxicity in Hordeum vulgare (barley) assessed as injury at 3 g/ha post emergence application measured after 21 days after treatment. The conditions noted are these: in vivo, other, 504 h. In kind it is organism-based.
For data set [1], the system named is Galium aparine. Kind of data set: Herbicidal activity against Galium aparine assessed as killing at 100 g/ha post emergence application measured after 21 days after treatment. The format is functional.
The test system of data set [2] is Stellaria media. Kind of data set: Herbicidal activity against Stellaria media assessed as killing at 300 g/ha post emergence application measured after 21 days after treatment. The format is functional.
The test system of data set [3] is Stellaria media. Kind of data set: Herbicidal activity against Stellaria media assessed as killing at 10 g/ha pre emergence application measured after 21 days after treatment. In kind it is functional.
The test system of data set [4] is Galium aparine. The experiment in a line: Herbicidal activity against Galium aparine assessed as killing at 0.3 g/ha post emergence application measured after 21 days after treatment. The format is functional.
In data set [5] the target is T1, Protoporphyrinogen oxidase 2 (Spinacia oleracea) (UniProt Q94IG7).
T1 sequence (whole entry): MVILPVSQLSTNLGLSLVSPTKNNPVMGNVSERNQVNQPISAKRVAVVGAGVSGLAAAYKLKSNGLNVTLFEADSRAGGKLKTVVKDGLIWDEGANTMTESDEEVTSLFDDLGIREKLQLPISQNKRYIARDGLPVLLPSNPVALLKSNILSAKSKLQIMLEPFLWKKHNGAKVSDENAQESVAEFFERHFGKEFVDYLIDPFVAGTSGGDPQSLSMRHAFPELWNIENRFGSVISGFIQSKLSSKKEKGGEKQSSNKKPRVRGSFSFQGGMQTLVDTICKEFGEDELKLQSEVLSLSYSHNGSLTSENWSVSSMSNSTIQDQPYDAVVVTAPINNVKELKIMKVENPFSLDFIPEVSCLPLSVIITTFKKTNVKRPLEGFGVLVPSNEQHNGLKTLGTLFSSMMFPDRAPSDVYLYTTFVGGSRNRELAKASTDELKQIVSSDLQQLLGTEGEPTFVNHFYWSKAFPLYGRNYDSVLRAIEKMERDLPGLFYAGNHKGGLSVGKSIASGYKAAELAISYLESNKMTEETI
Kind of data set: Inhibition of Stellaria media protoporphyrinogen oxidase by post-emergence herbicidal activity assay.

In data set [6] the test system is Viola arvensis. Kind of data set: Herbicidal activity against Viola arvensis assessed as killing at 100 g/ha post emergence application measured after 21 days after treatment. In kind it is functional.
Data set [7] concerns Viola arvensis. Kind of data set: Herbicidal activity against Viola arvensis assessed as killing at 1 g/ha post emergence application measured after 21 days after treatment. The format is functional.
The next data set has as its system Avena fatua. The experiment in a line: Herbicidal activity against Avena fatua assessed as killing at 30 g/ha post emergence application measured after 21 days after treatment. In kind it is functional, organism-based.
In data set [8] the test system is Triticum aestivum. The experiment in a line: Phytotoxicity in Triticum aestivum (wheat) assessed as injury at 30 g/ha pre emergence application measured after 21 days after treatment. In kind it is organism-based. The settings on record: in vivo, other, 504 h.
Data set [9] relates to Triticum aestivum. Kind of data set: Phytotoxicity in Triticum aestivum (wheat) assessed as injury at 100 g/ha pre emergence application measured after 21 days after treatment. In kind it is organism-based. The settings on record: in vivo, other, 504 h.

Regarding `CCOC(=O)COc1cc(-c2nn(C)c(OC(F)F)c2Cl)c(F)cc1Cl` [PYRAFLUFEN-ETHYL], the Activity was determined as 1% in the data set on Hordeum vulgare; 40% in the data set with Galium aparine [1]; 100% in the data set on Stellaria media [2]; 21% with Stellaria media [3]; 60% in the data set on Galium aparine [4]; 40% with Viola arvensis [6]. Besides, the results for the Activity in the data set on Viola arvensis [7], in the data set on Triticum aestivum [8] and with Triticum aestivum [9] were 80%, “Non-toxic” and 1%, respectively. In data set [5], this compound had an ED90 of 0.3 gAi/ha. Also, the result in the data set with Avena fatua was inactive.
